These results are taken from US11524966B1 (Valo Early Discovery, Inc., priority 2017, dated 2022).

The structures appear in SMILES notation. Bounds are passed on as bounds.

For the assay, the target named is T1, USP25 (USP25-His6, Boston Biochem E-546) (Homo sapiens, UniProt Q9UHP3).
T1 construct: His6; purchased Boston Biochem E-546
T1 sequence (Q9UHP3 1-1055): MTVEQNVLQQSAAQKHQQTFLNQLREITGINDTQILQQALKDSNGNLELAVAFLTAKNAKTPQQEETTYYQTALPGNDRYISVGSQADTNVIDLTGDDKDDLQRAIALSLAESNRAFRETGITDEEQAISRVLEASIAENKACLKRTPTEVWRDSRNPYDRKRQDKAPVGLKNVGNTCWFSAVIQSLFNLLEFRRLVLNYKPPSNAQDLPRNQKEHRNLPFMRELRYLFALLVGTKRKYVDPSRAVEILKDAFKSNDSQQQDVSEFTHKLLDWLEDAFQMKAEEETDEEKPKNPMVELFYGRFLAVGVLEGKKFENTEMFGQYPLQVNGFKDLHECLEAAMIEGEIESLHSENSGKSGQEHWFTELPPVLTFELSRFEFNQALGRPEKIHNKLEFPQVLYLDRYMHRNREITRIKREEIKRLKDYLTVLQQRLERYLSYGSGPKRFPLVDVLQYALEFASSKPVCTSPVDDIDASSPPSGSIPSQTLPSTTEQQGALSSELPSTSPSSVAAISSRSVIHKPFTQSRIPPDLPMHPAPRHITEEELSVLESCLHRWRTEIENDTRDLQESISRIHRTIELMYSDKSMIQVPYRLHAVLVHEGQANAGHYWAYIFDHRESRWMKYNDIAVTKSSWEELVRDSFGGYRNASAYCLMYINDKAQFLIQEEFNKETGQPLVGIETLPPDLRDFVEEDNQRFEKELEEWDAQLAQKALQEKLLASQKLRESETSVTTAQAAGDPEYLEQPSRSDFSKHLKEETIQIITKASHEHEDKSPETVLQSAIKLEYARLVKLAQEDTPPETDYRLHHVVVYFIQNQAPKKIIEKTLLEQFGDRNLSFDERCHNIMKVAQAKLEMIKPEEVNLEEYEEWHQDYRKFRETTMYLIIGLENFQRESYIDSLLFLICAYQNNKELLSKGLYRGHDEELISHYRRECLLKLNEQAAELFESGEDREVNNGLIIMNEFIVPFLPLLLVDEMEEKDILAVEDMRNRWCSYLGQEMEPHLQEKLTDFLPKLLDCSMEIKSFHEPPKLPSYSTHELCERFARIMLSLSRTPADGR
As to the kind of experiment: Ubiquitin-Rhodamine 110 Assay for USP25 Activity, Example A-2. It counts as biochemical. The conditions noted are these: Ubiquitin-Rhodamine 110 assay, Example A-2; read-out: USP25 A-2 IC50 range. The method in brief:
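Inhibition is quantified as IC50 by 4-parameter fit of fluorescence (485/535 nm) from Ub-Rh110 hydrolysis. Enzyme USP25-His6 at 75 pM with 30 min compound preincubation, then 25 nM substrate for 45 min at room temperature in pH 8.0 Tris buffer containing BME.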

A word on the IC50: it is the concentration needed to halve the response being measured. Take `Cc1ccc2c(N)c(C(=O)N[C@H]3CCc4nc(N5CCNCC5)ccc4C3)sc2n1` (single isomer, unassigned) [Example 23-7]: the concentration for half-maximal inhibition (IC50) is 200 to 2000 nM. Next, `Cc1ccc2c(N)c(C(=O)N[C@@H]3CCc4nc(N5CCNCC5)ccc4C3)sc2n1` (single isomer, unassigned) [Example 23-8]: over 2000 nM; `Cc1ccc2c(N)c(C(=O)N[C@H]3CCc4nc(N5CCN[C@@H](C)C5)ccc4C3)sc2n1` (single isomer, unassigned) [Example 23-15]: 200 to 2000 nM; `Cc1ccc2c(N)c(C(=O)N[C@H]3CCc4nc(N5CCN[C@H](C)C5)ccc4C3)sc2n1` (single isomer, unassigned) [Example 23-16]: 200 to 2000 nM. To `COC[C@@H]1CN(c2ccc3c(n2)CC[C@H](NC(=O)c2sc4nc(C)ccc4c2N)C3)C[C@@H]1N` (single isomer, unassigned) [Example 24-1] belongs over 2000 nM; to `COC[C@H]1CN(c2ccc3c(n2)CC[C@H](NC(=O)c2sc4nc(C)ccc4c2N)C3)C[C@H]1N` (single isomer, unassigned) [Example 24-2], 200 to 2000 nM; to `Cc1ccc2c(N)c(C(=O)N[C@H]3CCc4nc(N5CCNCC5)c(F)cc4C3)sc2n1` (single isomer, unassigned) [Example 30-1], 200 to 2000 nM. As for `Cc1ccc2c(N)c(C(=O)N[C@@H]3CCc4nc(N5CCNCC5)c(F)cc4C3)sc2n1` (single isomer, unassigned) [Example 30-2], the half-maximal inhibitory concentration (IC50) is over 2000 nM.

Take `Cc1ccc2c(N)c(C(=O)N[C@@H]3Cc4ccc(N5CCNCC5)nc4C4(CC4)C3)sc2n1` (single isomer, unassigned) [Example 31-3, 3-amino-6-methyl-N-[(6′S)-2-(piperazin-1-yl)-6′,7′-dihydro-5′H-spiro[cyclopropane-1,8′-quinoline]-6′-yl]thieno[2,3-b]pyridine-2-carboxamide]: the IC50 was over 2000 nM. `Cc1ccc2c(N)c(C(=O)N[C@H]3Cc4ccc(N5CCNCC5)nc4C4(CC4)C3)sc2n1` (single isomer, unassigned) [Example 31-4, 3-amino-6-methyl-N-[(6′R)-2′-(piperazin-1-yl)-6′,7′-dihydro-5′H-spiro[cyclopropane-1,8′-quinoline]-6′-yl]thieno[2,3-b]pyridine-2-carboxamide]: the IC50 is 200 to 2000 nM. To `Cc1ccc2c(N)c(C(=O)N[C@H]3COc4cc(N5C[C@@H]6CCNC[C@@H]65)ccc4C3)sc2n1` (single isomer, unassigned) [Example 33-3] belongs 50 to 200 nM; to `Cc1ccc2c(N)c(C(=O)N[C@H]3COc4cc(N5C[C@H]6CCNC[C@H]65)ccc4C3)sc2n1` (single isomer, unassigned) [Example 33-4], 200 to 2000 nM; to `Cc1cnc2c(N)c(C(=O)N[C@H]3COc4cc(N5CC6CCC(C5)N6)c(F)cc4C3)sc2n1` (single isomer, unassigned) [Example 40], 50 to 200 nM. To `Cc1cnc2c(N)c(C(=O)N[C@@H]3COc4cc(N5CC6CCC(C5)N6)c(F)cc4C3)sc2n1` (single isomer, unassigned) [Example 41] belongs over 2000 nM; to `Cc1nc2sc(C(=O)N[C@H]3CCc4nc(N5CCNCC5)ccc4C3)c(N)c2s1` [Example 23-9], over 2000 nM.

Regarding `Cc1ccc2c(N)c(C(=O)N[C@H]3CCc4nc(N5CC6CC(C5)N6)ccc4C3)sc2n1` [Example 23-10, 3-amino-N-[(6S)-2-{3,6-diazabicyclo[3.1.1]heptan-3-yl}-5,6,7,8-tetrahydroquinolin-6-yl]-6-methylthieno[2,3-b]pyridine-2-carboxamide], the IC50 lay in the range of 200 to 2000 nM. To `Cc1cnc2c(N)c(C(=O)N[C@H]3CCc4nc(N5CC6CC(C5)N6)ccc4C3)sc2n1` [Example 23-11, 7-amino-N-[(6S)-2-{3,6-diazabicyclo[3.1.1]heptan-3-yl}-5,6,7,8-tetrahydroquinolin-6-yl]-3-methylthieno[2,3-b]pyrazine-6-carboxamide] belongs 200 to 2000 nM.
